From patent publication US11479587B2, “Cationic intrinsically disordered antimicrobial peptides” (priority 2016, dated 2022)
“And” between values parts separate entries of the source, which are not always exact repeats. Identical values can stand only once. Like-named read-outs stand apart in the source and are kept apart here. Non-standard residues stand in square brackets, D forms with d. Residues, ends and D or L forms follow the SMILES beside them. *: point of attachment. Palmitoyl = CCCCCCCCCCCCCCCC(=O)*; Dap = NC[C@H](N)C(=O)O

Assays:
[1] = test system: C. albicans ATCC 928
[2] = Cytotoxicity (resazurin) assay
Method in brief: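 HEK293 cells (4000/well) in DMEM with 10% FBS exposed to compound for 20 h at 37 °C, 5% CO2. Resazurin (100 μM final) added for a further 3 h and fluorescence read at 560/590 nm. CC50 obtained from dose–response fit of percentage cytotoxicity.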

[3] = Hemolysis assay; assay type: cell-based
Description: (§1) For the hemolysis assays EDTA-blood was centrifuged at 800×g for 10 min, and the plasma and buffy coat were removed. The erythrocytes were washed three times and resuspended in 5% PBS, pH 7.4. The cells were then incubated with end-over-end rotation for 1 h at 37° C. in the presence of different concentrations of peptides (0, 3, 10, 30, 60 μm). 0.1% Triton X-100 (Sigma-Aldrich) served as positive control. The samples were then centrifuged at 800×g for 10 min.
(§2) The absorbance of hemoglobin release was measured at 540 nm and is expressed as % of Triton X-100-induced hemolysis. These values of triplicates were plotted with Graph Pad Prism 4 as a dose response curve and the CC50 was determined.

[4] = test system: erythrocytes; test: Hemolysis assay; assay type: cell-based
Description: as §1, §2

[5] = test system: methicillin-resistant S. aureus strain (ATCC 43300); assay type: cell-based, Staphylococcus aureus; settings: ATCC 43300, 18 h
Description: Furthermore, sensitivity of a methicillin-resistant S. aureus strain (ATCC 43300) was investigated for palmitoylated CIDAMPs in a microtiter plate screening model, with incubation in Mueller-Hinton medium at 37° C. for 18 h using resazurin as a marker for cell viability.
A sample of each culture was then diluted 40-fold in fresh broth and incubated at 37° C. for 1.5-3 h. […] All the plates were covered and incubated at 37° C. for 18 h.
(§3) Inhibition of bacterial growth was determined using resazurin as a marker for cell viability. Resazurin was added to each well, at 0.001% final concentration, and plates incubated at 37° C. for 2 h. Fluorescence intensity was measured, using F (top read), ex 560/10 nm, em 590/10 nm, using a Tecan M1000 Pro monochromator plate reader.

[6] = test system: C. neoformans
[7] = test system: Burkholderia cepacia ATCC 25416; test: CFU-assay, Burkholderia cepacia-cidal activity; assay type: cell-based; settings: pH 5.5, 0.25% glucose
[8] = test system: Escherichia coli ATCC11775; test: CFU-assay, antimicrobial activity spectrum; assay type: cell-based; settings: pH 5.5, 1% TSB
[9] = test system: S. aureus ATCC 6538; test: CFU-assay, S. aureus-cidal activity; assay type: cell-based, Staphylococcus aureus; settings: pH 5.5, 1% TSB
Method in brief: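 Bactericidal CFU-assay in nutrient-deficient 10 mM sodium phosphate buffer pH 5.5 with 0.25% glucose, counting surviving colonies across twofold peptide dilutions from 300 μg/ml to 19 ng/ml. Output is minimal bactericidal concentration (e.g. MBC90, MBC100); some peptides also tested at pH 7.0.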

[10] = test system: P. aeruginosa ATCC 10145; test: CFU-assay, P. aeruginosa-cidal activity; assay type: cell-based, Pseudomonas aeruginosa
[11] = test system: Candida albicans ATCC 24433; test: CFU-assay, Candida albicans-cidal activity; assay type: cell-based
Description: Thus, within the present invention, the antimicrobial activity is generally measured in nutrient deficient 10 mM sodium phosphate buffer pH 5.5, containing 0.25% glucose, using the CFU-assay according to Steinberg and Lehrer, 1997 (supra), unless otherwise indicated. The CFU-assay allows determination of the minimal bactericidal concentration (MBC, e.g., MBC90 and MBC100; i.e. the concentration of compound required to achieve a specified reduction in bacterial cell number (microbial death or killing)). […]
HR 1-17 affects C. albicans ATCC 24433 with highest activity at pH 5.5 in the absence of TSB in the medium (see Tables 12, 24). […] Furthermore, the substitution of any of the Arg residues by Gly leads to a dramatic reduction or loss of candidacidal activity (see Table 24).

[12] = test system: A. baumannii ATCC 19606; assay type: cell-based, Acinetobacter baumannii; settings: ATCC 19606, 2 h
Description: as §3

CCCCCCCCCCCCCCCC(=O)NCC(=O)N[C@@H](CN)C(=O)NCC(=O)N[C@@H](CN)C(=O)O [Pal-GDap4, Pal-GDapGDap] (Palmitoyl-G[Dap]G[Dap]-OH)
MIC, C. albicans ATCC 90028 ([1]; ATCC 928): ≥8 µg/mL | MIC ([1]; ATCC 928, 18 h, pH 7.4): 1 to 32 µg/mL | CC50 [2]: > 32 µg/mL | HC50 [3]: > 300 µg/mL | hemolytic activity (in words) [4]: low hemolytic activity | MIC, S. aureus ATCC 43300 [5]: ≥8 µg/mL | MIC, C. neoformans ATCC 208821 [6]: ≥1 µg/mL

GRHGSGLGHSSSHGQHGSGSGRSSSRGPY (Peptide derived from human hornerin (HR 1-17))
MBC90 [7]: >300 µg/mL | MBC100 [7]: >300 µg/mL | MBC90 [8]: >300 µg/mL | MBC100 [8]: >300 µg/mL | MBC90 [9]: >300 µg/mL | MBC100 [9]: >300 µg/mL | MBC90 ([10]; pH 5.0, 0.25% glucose): 0.038 µg/mL and 0.0375 µg/mL | MBC100 ([10]; pH 5.0, 0.25% glucose): 0.15 µg/mL | MBC100 ([10]; pH 5.5, 0.25% glucose): 0.15 µg/mL and 0.3 µg/mL | MBC90 ([10]; pH 5.5, 1% TSB): 0.59 µg/mL | MBC100 ([10]; pH 5.5, 1% TSB): 18.75 µg/mL | MBC90 [11]: 0.56 µM | MBC90 ([11]; pH 5.5, 0.25% glucose): 1.18 µg/mL | MBC100 ([11]; pH 5.5, 0.25% glucose): 9.38 µg/mL | MBC100 ([11]; pH 5.5, 1% TSB): 150 µg/mL and >300 µg/mL | MBC90 ([11]; pH 7.2, 1.% TSB): >300 µg/mL | MBC100 ([11]; pH 7.2, 1.% TSB): >300 µg/mL

CCCCCCCCCCCCCCCC(=O)NCC(=O)N[C@@H](CCCN)C(=O)N[C@@H](CCCN)C(=O)NCC(=O)NCC(=O)N[C@@H](CCCN)C(=O)NCC(=O)NCC(=O)N[C@@H](CCCN)C(=O)NCC(=O)N[C@@H](CCCN)C(=O)NCC(=O)N[C@@H](CCCN)C(=O)O [Pal-Orn-GR13, Pal-GOOGGOGGOGOGO] (HELM PEPTIDE1{[CCCCCCCCCCCCCCCC(=O)[*:2]].G.[Orn].[Orn].G.G.[Orn].G.G.[Orn].G.[Orn].G.[Orn]}$$$$V2.0)
CC50 [2]: > 32 µg/mL | HC50 [3]: > 300 µg/mL | hemolytic activity (in words) [4]: low hemolytic activity

CCCCCCCCCCCCCCCC(=O)NCC(=O)N[C@@H](CCCNC(=N)N)C(=O)N[C@@H](Cc1c[nH]cn1)C(=O)NCC(=O)N[C@@H](CO)C(=O)NCC(=O)N[C@@H](CC(C)C)C(=O)NCC(=O)N[C@@H](Cc1c[nH]cn1)C(=O)N[C@@H](CO)C(=O)N[C@@H](CO)C(=O)N[C@@H](CO)C(=O)N[C@@H](Cc1c[nH]cn1)C(=O)NCC(=O)N[C@@H](CCC(N)=O)C(=O)N[C@@H](Cc1c[nH]cn1)C(=O)NCC(=O)N[C@@H](CO)C(=O)NCC(=O)N[C@@H](CO)C(=O)NCC(=O)N[C@@H](CCCNC(=N)N)C(=O)O [Pal-HR 1-18] (HELM PEPTIDE1{[CCCCCCCCCCCCCCCC(=O)[*:2]].G.R.H.G.S.G.L.G.H.S.S.S.H.G.Q.H.G.S.G.S.G.R}$$$$V2.0)
MIC, A. baumannii ATCC 19606 [12]: ≥32 µg/mL | CC50 [2]: > 32 µg/mL and > 13.7 µM | HC50 [3]: > 300 µg/mL | HC50 at 1 h ([3]; human, washed erythrocytes from EDTA-blood, pH 7.4): > 130 µM | hemolytic activity (in words) [4]: low hemolytic activity

CCCCCCCCCCCCCCCC(=O)NCC(=O)N[C@@H](CCCCN)C(=O)N[C@@H](CCCCN)C(=O)NCC(=O)NCC(=O)N[C@@H](CCCCN)C(=O)NCC(=O)NCC(=O)N[C@@H](CCCCN)C(=O)NCC(=O)N[C@@H](CCCCN)C(=O)NCC(=O)N[C@@H](CCCCN)C(=O)O [Pal-K-GR13] (HELM PEPTIDE1{[CCCCCCCCCCCCCCCC(=O)[*:2]].G.K.K.G.G.K.G.G.K.G.K.G.K}$$$$V2.0)
CC50 [2]: > 32 µg/mL | HC50 [3]: > 300 µg/mL | hemolytic activity (in words) [4]: low hemolytic activity
